{"source": "patent US5565561A", "about": "“Natural substance cyclamenol and chemical derivatives” (Bayer Aktiengesellschaft, priority 1992, dated 1996)", "key": {"[1]": {"target": "T1, Myeloperoxidase from human polymorphonuclear neutrophils (Homo sapiens, UniProt P05164)", "T1 construct": "The latter were isolated from fresh venous whole blood; endogenous in cells; host or cells: human polymorphonuclear neutrophils isolated from fresh venous whole blood; lysed with cetyltrimethylammonium bromide, 40,000 g supernatant", "T1 sequence (P05164 279-745 limits assumed)": "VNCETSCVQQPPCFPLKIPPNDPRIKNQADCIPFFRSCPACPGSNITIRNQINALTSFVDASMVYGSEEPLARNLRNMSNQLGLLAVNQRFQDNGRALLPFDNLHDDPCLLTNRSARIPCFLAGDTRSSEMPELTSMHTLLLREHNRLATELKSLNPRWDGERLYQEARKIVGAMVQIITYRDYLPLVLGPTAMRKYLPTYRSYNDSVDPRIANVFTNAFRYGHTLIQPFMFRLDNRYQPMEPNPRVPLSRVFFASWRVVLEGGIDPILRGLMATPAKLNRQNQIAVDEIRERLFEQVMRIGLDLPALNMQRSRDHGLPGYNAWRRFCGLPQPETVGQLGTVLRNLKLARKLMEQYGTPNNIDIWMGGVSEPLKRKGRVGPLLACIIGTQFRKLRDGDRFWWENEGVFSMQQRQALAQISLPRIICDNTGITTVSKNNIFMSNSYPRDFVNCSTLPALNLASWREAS", "T1 sequence (P05164 165-278 limits assumed)": "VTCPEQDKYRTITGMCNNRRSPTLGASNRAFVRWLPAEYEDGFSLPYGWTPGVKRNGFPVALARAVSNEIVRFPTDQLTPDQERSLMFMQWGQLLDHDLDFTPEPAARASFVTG", "test": "Inhibition of myeloperoxidase activity (ortho-dianisidine/H2O2, absorbance at 490 nm)", "assay_type": "biochemical", "settings": "pH 6.0, 30° C.", "description": "Myeloperoxidase from human polymorphonuclear neutrophils was used for the measurements. The latter were isolated from fresh venous whole blood according to the method of D. English and B. R. Andersen, Journal of Immunological Methods 5, (1974) 249-252.\n10^7 cells were lysed at 0° C. for 10 min using 1 ml of 0.5% cetyltrimethylammonium bromide in 50 mmol/l sodium phosphate buffer pH 6.0, frozen and directly thawed again. This process was repeated twice. The suspension was then centrifuged at 40,000 g for 10 min. The supernatant was diluted with 50 mmol/l sodium phosphate buffer pH 6.0 according to its myeloperoxidase activity and used for the tests.\nTo carry out the tests, 10 μl of test sample are added to a dimethyl sulphoxide-containing solution (max. v/v 30%) with 30 μl of the myeloperoxidase solution prepared as described above=1-2.5 μg of protein, in a microtitre plate (Greiner) with a smooth bottom. The reaction is started by addition of a test mixture consisting of 250 μl of 50 mmol/l sodium phosphate buffer pH 6.0, 10 μl of 0.5×10^-3 mmol/l H2 O2 and 10 μl of 2.5×10^-2 mol/l ortho-dianisidine in dimethyl sulphoxide. The increase in the absorbance is measured at 490 nm in an Elisa reader at 30° C. 6 measurements are carried out at an interval of 2 min and the increase in absorbance per minute is calculated. A control which instead of a test sample contains only the corresponding amount of dimethyl sulphoxide is prepared as the 100% value and then the inhibition by the sample is calculated. All measurements are carried out as a triplicate determination."}, "[2]": {"tested_on": "Leucocyte adhesion in small venules", "test": "Leucocyte adhesion in small venules of the hamster cheek pouch", "assay_type": "in vivo", "settings": "Mesocricetus auratus, iv, adhesion caused by the preparation, read-out: dose from which leucocyte adhesion is significantly reduced", "source_text": "(§1) 3. Leucocyte adhesion in small venules was investigated in the hamster cheek pouch (preparation according to Duling, MVR 5, 423-429, 1973). An increased adhesion is caused by the preparatory preparation of the cheek pouch. […] The determination of the myeloperoxidase activity as a direct measure of the accumulation of neutrophilic leucocytes gives increases of around 80-100% compared to the control."}, "[3]": {"tested_on": "myeloperoxidase activity (accumulation of neutrophilic leucocytes)", "test": "LTB4-superfused hamster cheek pouch, myeloperoxidase activity as measure of accumulation of neutrophilic leucocytes", "assay_type": "in vivo", "settings": "1 mg/kg i.v.; cheek pouch superfused with LTB4 for 10 min", "source_text": "as §1"}, "[4]": {"tested_on": "infarcted cardiac tissue", "test": "Reduction of the infarct size in the rat infarct model", "assay_type": "in vivo, Wistar rats", "settings": "1 mg/kg each before occlusion and before reperfusion, jugular vein infusion; average and standard deviation, 11 rats", "description": "After a 5-minute post-operative recovery phase, the compound from Example 1 in a dose of 1 mg/kg dissolved in 100% DMSO or solvents was infused for 6 min into the catheterized jugular vein of the ventilated rats and the coronary artery was occluded for 30 min. At the 25 minute point of the occlusion, the second administration of the compound from Example 1 or solvent is carried out under the conditions described above. After the end of the infusion and occulsion phase, the ligature was opened and the heart was reperfused for 90 min.\nFor histological staining of the infarcted cardiac tissue, the heart was perfused ex vivo retrogressively with triphenyltetrazolium chloride (TTC, 1.5%) in 20 mM potassium phosphate buffer for 15 min and with 0.9% NaCl for 10 min at 37° C. and at a perfusion pressure of 100 mm Hg. The infarct sizes were calculated in percent by weight of infarcted to non-infarcted tissue and indicated in percent as average values and their standard deviations of 11 rats treated with the compound from Example 1 and of 11 treated with solvent."}}}
{"smiles": "CC1C=CC=CC=CC=CC(O)CC=CC=CC=CC(=O)NC1", "note": "(centres unmarked) [Example 1, Cyclamenol]", "values": [{"measurement": "inhibition at 0.1 µM", "setting": "[1]; 0.1 μmol/l", "value": 12, "unit": "%"}, {"measurement": "inhibition at 1 µM", "setting": "[1]; 1 μmol/l", "value": 28, "unit": "%"}, {"measurement": "inhibition at 10 µM", "setting": "[1]; 10 μmol/l", "value": 45, "unit": "%"}, {"measurement": "inhibition at 50 µM", "setting": "[1]; 50 μmol/l", "value": 60, "unit": "%"}, {"measurement": "minimal effective dose", "setting": "[2]", "value": "≥ 0.1", "unit": "mg/kg"}, {"measurement": "effect on the rise in MPO activity", "setting": "[3]", "value": "prevents the rise in the MPO activity"}, {"measurement": "reduction of infarct size", "setting": "[4]", "value": "12.2±4.8", "unit": "%"}, {"measurement": "reduction of infarct size (first value)", "setting": "[4]", "value": "19.0±6.0", "unit": "%"}]}
